# ChEMBL document CHEMBL3885861, “Open TG-GATES”
# Species: Rattus norvegicus
# Experiment: Open TG-GATES - Regimen: Daily Repeat
# Format: toxicity, organism-based, Sprague-Dawley
# Set-up: regimen Daily Repeat, gender Male, age 6 weeks
# Settings: in vivo, po, route gavage; for Bas / Eos / Fbg / Hb / Ht / Lym / MCH / MCHC / MCV / Mono / Neu / PT / Plat / RBC / Ret / WBC / APTT: tissue Blood; for KIDNEY_L / KIDNEY_R / KIDNEY_TOTAL: tissue Kidney; for LIVER: tissue Liver; for ALP / AST / BUN / CRE / Ca / Cl / DBIL / GLC / IP / LDH / Na / PL / RALB / TBIL / TC / TG / TP / gamma-GTP: tissue Plasma
# [1] = 30 mg/kg, 72 h, dose level Middle, time 3 day
# [2] = 30 mg/kg, […], dose level Middle, time 7 day
# [3] = 30 mg/kg, […], dose level Middle, time 14 day
# [4] = 30 mg/kg, […], dose level Middle, time 28 day
# [5] = 100 mg/kg, 72 h, dose level High, time 3 day
# [6] = 100 mg/kg, […], dose level High, time 7 day
# [7] = 100 mg/kg, […], dose level High, time 14 day
# [8] = 100 mg/kg, […], dose level High, time 28 day
compound,measurement,setting,value
CC(=O)N1CCN(c2ccc(OCC3COC(Cn4ccnc4)(c4ccc(Cl)cc4Cl)O3)cc2)CC1 (configuration not stated) [KETOCONAZOLE],Bas,[1],0%
same,Eos,[1],1%
same,Fbg,[1],303.8 mg/dL
same,Hb,[1],13.4 g/dL
same,Ht,[1],39.7%
same,Lym,[1],77.4%
same,MCH,[1],21.4 pg
same,MCHC,[1],33.8%
same,MCV,[1],63.3 fL
same,Mono,[1],2.4%
same,Neu,[1],18.2%
same,PT,[1],16.3 s
same,Plat,[1],117.1 x10_4/uL
same,RBC,[1],627.6 x10_4/ul
same,Ret,[1],5.6%
same,WBC,[1],101.1 x10_2/uL
same,KIDNEY_L,[1],1 g
same,KIDNEY_R,[1],1.1 g
same,KIDNEY_TOTAL,[1],2.1 g
same,LIVER,[1],10.5 g
same,ALP,[1],1639 IU/L
same,AST,[1],67.4 IU/L
same,BUN,[1],17.8 mg/dL
same,CRE,[1],0.1 mg/dL
same,Ca,[1],10.8 mg/dL
same,Cl,[1],106.4 meq/L
same,DBIL,[1],0 mg/dL
same,GLC,[1],181.8 mg/dL
same,IP,[1],6.7 mg/dL
same,LDH,[1],236.6 IU/L
same,Na,[1],139.8 meq/L
same,PL,[1],141.8 mg/dL
same,RALB,[1],3.1 g/dL
same,TBIL,[1],0.01 mg/dL
same,TC,[1],71 mg/dL
same,TG,[1],88.6 mg/dL
same,TP,[1],5.7 g/dL
same,gamma-GTP,[1],1.2 IU/L
same,TERMINAL_BW,[2],265.9 g
same,TERMINAL_BW,[3],312.9 g
same,TERMINAL_BW,[4],360.4 g
same,APTT,[2],21.8 s
same,Bas,[2],0%
same,Eos,[2],1%
same,Fbg,[2],321.6 mg/dL
same,Hb,[2],13.5 g/dL
same,Ht,[2],39.7%
same,Lym,[2],75.8%
same,MCH,[2],21.2 pg
same,MCHC,[2],34%
same,MCV,[2],62.4 fL
same,Mono,[2],2.4%
same,PT,[2],16 s
same,Plat,[2],121.4 x10_4/uL
same,RBC,[2],636.6 x10_4/ul
same,Ret,[2],5.4%
same,WBC,[2],103.7 x10_2/uL
same,APTT,[3],21.1 s
same,Bas,[3],0%
same,Eos,[3],0.8%
same,Fbg,[3],291.8 mg/dL
same,Hb,[3],13.4 g/dL
same,Ht,[3],39.6%
same,Lym,[3],76%
same,MCH,[3],20.5 pg
same,MCHC,[3],33.8%
same,MCV,[3],60.7 fL
same,Mono,[3],2.4%
same,Neu,[3],19.2%
same,PT,[3],16.2 s
same,Plat,[3],126.1 x10_4/uL
same,RBC,[3],652.8 x10_4/ul
same,Ret,[3],4.9%
same,WBC,[3],115.1 x10_2/uL
same,APTT,[4],25 s
same,Bas,[4],0%
same,Eos,[4],1%
same,Fbg,[4],286.6 mg/dL
same,Hb,[4],15.2 g/dL
same,Ht,[4],43.9%
same,Lym,[4],76.8%
same,MCH,[4],19.6 pg
same,MCHC,[4],34.5%
same,MCV,[4],56.9 fL
same,Mono,[4],1.6%
same,PT,[4],16.9 s
same,Plat,[4],105.3 x10_4/uL
same,RBC,[4],773.4 x10_4/ul
same,Ret,[4],2.6%
same,WBC,[4],102.4 x10_2/uL
same,KIDNEY_L,[2],1.2 g
same,KIDNEY_R,[2],1.2 g
same,KIDNEY_TOTAL,[2],2.3 g
same,KIDNEY_L,[3],1.3 g
same,KIDNEY_R,[3],1.3 g
same,KIDNEY_TOTAL,[3],2.6 g
same,KIDNEY_L,[4],1.3 g
same,KIDNEY_R,[4],1.4 g
same,KIDNEY_TOTAL,[4],2.7 g
same,LIVER,[2],12.2 g
same,LIVER,[3],14.4 g
same,LIVER,[4],15.1 g
same,ALP,[2],1565.4 IU/L
same,AST,[2],70.4 IU/L
same,BUN,[2],18.2 mg/dL
same,CRE,[2],0.1 mg/dL
same,Ca,[2],10.6 mg/dL
same,Cl,[2],108.2 meq/L
same,DBIL,[2],0 mg/dL
same,GLC,[2],176.4 mg/dL
same,IP,[2],6.9 mg/dL
same,LDH,[2],171.8 IU/L
same,Na,[2],142 meq/L
same,PL,[2],145 mg/dL
same,RALB,[2],3 g/dL
same,TBIL,[2],0.004 mg/dL
same,TC,[2],70.4 mg/dL
same,TG,[2],135.4 mg/dL
same,TP,[2],5.7 g/dL
same,gamma-GTP,[2],1.6 IU/L
same,ALP,[3],1247.8 IU/L
same,AST,[3],65.4 IU/L
same,BUN,[3],18.2 mg/dL
same,CRE,[3],0.1 mg/dL
same,Ca,[3],10.4 mg/dL
same,Cl,[3],106.8 meq/L
same,DBIL,[3],0 mg/dL
same,GLC,[3],180.8 mg/dL
same,IP,[3],6.6 mg/dL
same,LDH,[3],194.8 IU/L
same,Na,[3],142.2 meq/L
same,PL,[3],140 mg/dL
same,RALB,[3],3 g/dL
same,TBIL,[3],0.004 mg/dL
same,TC,[3],68.6 mg/dL
same,TG,[3],134 mg/dL
same,TP,[3],5.8 g/dL
same,gamma-GTP,[3],1 IU/L
same,ALP,[4],1104.2 IU/L
same,AST,[4],66.8 IU/L
same,BUN,[4],18.4 mg/dL
same,CRE,[4],0.2 mg/dL
same,Ca,[4],10.4 mg/dL
same,DBIL,[4],0 mg/dL
same,GLC,[4],179 mg/dL
same,IP,[4],4.9 mg/dL
same,LDH,[4],155.2 IU/L
same,Na,[4],142.4 meq/L
same,PL,[4],126 mg/dL
same,RALB,[4],3.1 g/dL
same,TBIL,[4],0.008 mg/dL
same,TC,[4],61.6 mg/dL
same,TP,[4],6.1 g/dL
same,gamma-GTP,[4],1.2 IU/L
same,TERMINAL_BW,[5],230.7 g
same,APTT,[5],20.5 s
same,Bas,[5],0%
same,Eos,[5],0.8%
same,Fbg,[5],321 mg/dL
same,Hb,[5],13.3 g/dL
same,Ht,[5],39.8%
same,MCH,[5],20.9 pg
same,MCHC,[5],33.5%
same,MCV,[5],62.4 fL
same,Mono,[5],2.8%
same,Neu,[5],16.2%
same,PT,[5],16.2 s
same,Plat,[5],128.4 x10_4/uL
same,RBC,[5],639 x10_4/ul
same,Ret,[5],5.2%
same,WBC,[5],83.5 x10_2/uL
same,KIDNEY_L,[5],1.1 g
same,KIDNEY_R,[5],1 g
same,KIDNEY_TOTAL,[5],2.1 g
same,LIVER,[5],12.1 g
same,ALP,[5],1481 IU/L
same,AST,[5],63.8 IU/L
same,BUN,[5],19.2 mg/dL
same,CRE,[5],0.2 mg/dL
same,Ca,[5],10.8 mg/dL
same,Cl,[5],105.6 meq/L
same,DBIL,[5],0 mg/dL
same,GLC,[5],179.6 mg/dL
same,IP,[5],7 mg/dL
same,LDH,[5],261.8 IU/L
same,Na,[5],141 meq/L
same,PL,[5],133.6 mg/dL
same,RALB,[5],3 g/dL
same,TBIL,[5],0.004 mg/dL
same,TC,[5],72.4 mg/dL
same,TG,[5],73.2 mg/dL
same,TP,[5],5.8 g/dL
same,gamma-GTP,[5],1.6 IU/L
same,TERMINAL_BW,[6],256.9 g
same,TERMINAL_BW,[7],298.5 g
same,TERMINAL_BW,[8],353.3 g
same,APTT,[6],20.6 s
same,Bas,[6],0%
same,Eos,[6],0.4%
same,Fbg,[6],302.4 mg/dL
same,Hb,[6],12.9 g/dL
same,Ht,[6],38.5%
same,Lym,[6],79.4%
same,MCH,[6],21 pg
same,MCHC,[6],33.6%
same,MCV,[6],62.6 fL
same,Mono,[6],1.2%
same,Neu,[6],17.6%
same,PT,[6],16.1 s
same,Plat,[6],111.5 x10_4/uL
same,RBC,[6],616.2 x10_4/ul
same,Ret,[6],5.5%
same,WBC,[6],106.4 x10_2/uL
same,APTT,[7],20.9 s
same,Bas,[7],0%
same,Eos,[7],0.4%
same,Fbg,[7],316 mg/dL
same,Hb,[7],13.9 g/dL
same,Ht,[7],41.6%
same,Lym,[7],72.4%
same,MCH,[7],20.3 pg
same,MCHC,[7],33.5%
same,MCV,[7],60.6 fL
same,Mono,[7],1.4%
same,Neu,[7],24.6%
same,PT,[7],16.3 s
same,Plat,[7],122.8 x10_4/uL
same,RBC,[7],687.8 x10_4/ul
same,Ret,[7],4.5%
same,WBC,[7],85.7 x10_2/uL
same,APTT,[8],23.2 s
same,Bas,[8],0%
same,Eos,[8],1.2%
same,Fbg,[8],314.2 mg/dL
same,Hb,[8],14.5 g/dL
same,Ht,[8],42.3%
same,Lym,[8],72%
same,MCH,[8],19.1 pg
same,MCHC,[8],34.2%
same,MCV,[8],55.8 fL
same,Mono,[8],1.8%
same,Neu,[8],24%
same,PT,[8],17.1 s
same,Plat,[8],109.8 x10_4/uL
same,RBC,[8],758.8 x10_4/ul
same,Ret,[8],3%
same,WBC,[8],86.3 x10_2/uL
same,KIDNEY_L,[6],1.2 g
same,KIDNEY_R,[6],1.2 g
same,KIDNEY_TOTAL,[6],2.4 g
same,KIDNEY_L,[7],1.3 g
same,KIDNEY_R,[7],1.3 g
same,KIDNEY_TOTAL,[7],2.6 g
same,KIDNEY_L,[8],1.4 g
same,KIDNEY_R,[8],1.4 g
same,KIDNEY_TOTAL,[8],2.8 g
same,LIVER,[7],15 g
same,LIVER,[8],16.1 g
same,ALP,[6],1138 IU/L
same,AST,[6],64.8 IU/L
same,BUN,[6],17.2 mg/dL
same,CRE,[6],0.1 mg/dL
same,Ca,[6],10.8 mg/dL
same,Cl,[6],107.6 meq/L
same,DBIL,[6],0 mg/dL
same,GLC,[6],189.6 mg/dL
same,IP,[6],7 mg/dL
same,LDH,[6],203 IU/L
same,Na,[6],143.6 meq/L
same,PL,[6],119.6 mg/dL
same,RALB,[6],2.9 g/dL
same,TBIL,[6],0 mg/dL
same,TC,[6],62.4 mg/dL
same,TG,[6],73.8 mg/dL
same,TP,[6],5.8 g/dL
same,gamma-GTP,[6],1 IU/L
same,ALP,[7],1375.6 IU/L
same,AST,[7],67.8 IU/L
same,BUN,[7],16.8 mg/dL
same,CRE,[7],0.1 mg/dL
same,Ca,[7],10.4 mg/dL
same,Cl,[7],106 meq/L
same,DBIL,[7],0 mg/dL
same,GLC,[7],177.8 mg/dL
same,IP,[7],6.3 mg/dL
same,LDH,[7],194.4 IU/L
same,Na,[7],143.8 meq/L
same,PL,[7],138.2 mg/dL
same,RALB,[7],3.1 g/dL
same,TBIL,[7],0.004 mg/dL
same,TC,[7],70.4 mg/dL
same,TG,[7],114.8 mg/dL
same,TP,[7],6 g/dL
same,gamma-GTP,[7],1.2 IU/L
same,ALP,[8],1014.6 IU/L
same,AST,[8],65.8 IU/L
same,BUN,[8],16.8 mg/dL
same,CRE,[8],0.2 mg/dL
same,Ca,[8],10.3 mg/dL
same,Cl,[8],106.8 meq/L
same,DBIL,[8],0 mg/dL
same,GLC,[8],187.6 mg/dL
same,IP,[8],5.9 mg/dL
same,LDH,[8],154 IU/L
same,Na,[8],142.2 meq/L
same,PL,[8],111.8 mg/dL
same,RALB,[8],3.2 g/dL
same,TBIL,[8],0.016 mg/dL
same,TC,[8],57 mg/dL
same,TG,[8],56.4 mg/dL
same,TP,[8],6.1 g/dL
same,gamma-GTP,[8],1.6 IU/L
